From PubChem BioAssay AID1918930 (Molecular Pharmacology Branch, DTP, NCI, 2023)

Tested on: 233499-124-R-J3-PDC complex spheroid viability, % test/control
Experiment: Anticancer human tumor 233499-124-R-J3-PDC patient-derived colon adenocarcinoma cell line growth inhibition
Conditions: for IC50: curve of first compound; for viability, T/C: stronger effect = lower value
Method in brief: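 Multicellular complex spheroids of tumor cells with human endothelial cells (HUVEC) and mesenchymal stem cells; the LSD1 inhibitor iadademstat was combined with standard-of-care or investigational agents. Top concentration at or near clinical Cmax, half-log dilutions; final DMSO ≤0.25%.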

[1] = second compound 0.1 µM, first compound 0.0316 µM
[2] = second compound 0.1 µM, first compound 0.1 µM
[3] = second compound 0.1 µM, first compound 0.316 µM
[4] = second compound 0.1 µM, first compound 1 µM
[5] = second compound 0.316 µM, first compound 0.0316 µM
[6] = second compound 0.316 µM, first compound 0.1 µM
[7] = second compound 0.316 µM, first compound 0.316 µM
[8] = second compound 0.316 µM, first compound 1 µM
[9] = second compound 1 µM, first compound 0.0316 µM
[10] = second compound 1 µM, first compound 0.1 µM
[11] = second compound 1 µM, first compound 0.316 µM
[12] = second compound 1 µM, first compound 1 µM
[13] = second compound 3.16 µM, first compound 0.0316 µM
[14] = second compound 3.16 µM, first compound 0.1 µM
[15] = second compound 3.16 µM, first compound 0.316 µM
[16] = second compound 3.16 µM, first compound 1 µM
[17] = second compound 10 µM, first compound 0.0316 µM
[18] = second compound 10 µM, first compound 0.1 µM
[19] = second compound 10 µM, first compound 0.316 µM
[20] = second compound 10 µM, first compound 1 µM
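Further: spheroids exposed to agents for one week before readout.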

## COc1ccc([C@@H](O)c2cc(-c3ncnc4cc(N5CCOCC5)ccc34)c(F)cc2Cl)nn1 + NC1CC1c1ccc(-c2cccc(O)c2)cc1
Second compound 0.1 µM
  IC50: 5190 nM
Second compound 0.316 µM
  IC50: 6670 nM
Second compound 1 µM
  IC50: 5490 nM
Second compound 3.16 µM
  IC50: 3620 nM
Second compound 10 µM
  IC50: 1710 nM
[1]
  viability, T/C: 97.3%
[2]
  viability, T/C: 93.4%
[3]
  viability, T/C: 95.7%
[4]
  viability, T/C: 71.5%
Second compound 0.1 µM, first compound 3.16 µM
  viability, T/C: 63%
Second compound 0.1 µM, first compound 10 µM
  viability, T/C: 36.3%
[5]
  viability, T/C: 93.3%
[6]
  viability, T/C: 98.3%
[7]
  viability, T/C: 95.5%
[8]
  viability, T/C: 78.6%
Second compound 0.316 µM, first compound 3.16 µM
  viability, T/C: 78.5%
Second compound 0.316 µM, first compound 10 µM
  viability, T/C: 36.1%
[9]
  viability, T/C: 91.4%
[10]
  viability, T/C: 80.4%
[11]
  viability, T/C: 79.1%
[12]
  viability, T/C: 62%
Second compound 1 µM, first compound 3.16 µM
  viability, T/C: 63.1%
Second compound 1 µM, first compound 10 µM
  viability, T/C: 40.1%
[13]
  viability, T/C: 92.1%
[14]
  viability, T/C: 95.8%
[15]
  viability, T/C: 75.9%
[16]
  viability, T/C: 67.3%
Second compound 3.16 µM, first compound 3.16 µM
  viability, T/C: 57.7%
Second compound 3.16 µM, first compound 10 µM
  viability, T/C: 26.9%
[17]
  viability, T/C: 69.5%
[18]
  viability, T/C: 80.2%
[19]
  viability, T/C: 57.7%
[20]
  viability, T/C: 49.7%
Second compound 10 µM, first compound 3.16 µM
  viability, T/C: 51.2%
Second compound 10 µM, first compound 10 µM
  viability, T/C: 21.5%

## Nc1ncn(C2CC(O)C(CO)S2)c(=O)n1 (stereo not given) + NC1CC1c1ccc(-c2cccc(O)c2)cc1
Second compound 0.1 µM
  IC50: 100 nM
Second compound 0.316 µM
  IC50: 102 nM
Second compound 1 µM
  IC50: 124 nM
Second compound 3.16 µM
  IC50: 128 nM
Second compound 10 µM
  IC50: 81.5 nM
Second compound 0.1 µM, first compound 0.000949 µM
  viability, T/C: 95.5%
Second compound 0.1 µM, first compound 0.003 µM
  viability, T/C: 94.1%
Second compound 0.1 µM, first compound 0.00949 µM
  viability, T/C: 117%
Second compound 0.1 µM, first compound 0.03 µM
  viability, T/C: 101%
Second compound 0.1 µM, first compound 0.0949 µM
  viability, T/C: 51.2%
Second compound 0.1 µM, first compound 0.3 µM
  viability, T/C: 25.6%
Second compound 0.316 µM, first compound 0.000949 µM
  viability, T/C: 108%
Second compound 0.316 µM, first compound 0.003 µM
  viability, T/C: 96.7%
Second compound 0.316 µM, first compound 0.00949 µM
  viability, T/C: 114%
Second compound 0.316 µM, first compound 0.03 µM
  viability, T/C: 114%
Second compound 0.316 µM, first compound 0.0949 µM
  viability, T/C: 51.2%
Second compound 0.316 µM, first compound 0.3 µM
  viability, T/C: 31.5%
Second compound 1 µM, first compound 0.000949 µM
  viability, T/C: 85.7%
Second compound 1 µM, first compound 0.003 µM
  viability, T/C: 96.4%
Second compound 1 µM, first compound 0.00949 µM
  viability, T/C: 103%
Second compound 1 µM, first compound 0.03 µM
  viability, T/C: 87%
Second compound 1 µM, first compound 0.0949 µM
  viability, T/C: 57.2%
Second compound 1 µM, first compound 0.3 µM
  viability, T/C: 26.7%
Second compound 3.16 µM, first compound 0.000949 µM
  viability, T/C: 81%
Second compound 3.16 µM, first compound 0.003 µM
  viability, T/C: 86.9%
Second compound 3.16 µM, first compound 0.00949 µM
  viability, T/C: 85.8%
Second compound 3.16 µM, first compound 0.03 µM
  viability, T/C: 89.1%
Second compound 3.16 µM, first compound 0.0949 µM
  viability, T/C: 58.4%
Second compound 3.16 µM, first compound 0.3 µM
  viability, T/C: 26%
Second compound 10 µM, first compound 0.000949 µM
  viability, T/C: 80.2%
Second compound 10 µM, first compound 0.003 µM
  viability, T/C: 83.4%
Second compound 10 µM, first compound 0.00949 µM
  viability, T/C: 81.5%
Second compound 10 µM, first compound 0.03 µM
  viability, T/C: 83.8%
Second compound 10 µM, first compound 0.0949 µM
  viability, T/C: 45%
Second compound 10 µM, first compound 0.3 µM
  viability, T/C: 34.7%

## O=C(C=Cn1cnc(-c2cc(C(F)(F)F)cc(C(F)(F)F)c2)n1)NNc1cnccn1 + NC1CC1c1ccc(-c2cccc(O)c2)cc1
Second compound 0.1 µM
  IC50: 821 nM
Second compound 0.316 µM
  IC50: 669 nM
Second compound 1 µM
  IC50: 805 nM
Second compound 3.16 µM
  IC50: 920 nM
Second compound 10 µM
  IC50: 557 nM
Second compound 0.1 µM, first compound 0.00316 µM
  viability, T/C: 102%
Second compound 0.1 µM, first compound 0.01 µM
  viability, T/C: 83.9%
[1]
  viability, T/C: 95.7%
[2]
  viability, T/C: 101%
[3]
  viability, T/C: 77.6%
[4]
  viability, T/C: 44.3%
Second compound 0.316 µM, first compound 0.00316 µM
  viability, T/C: 91.8%
Second compound 0.316 µM, first compound 0.01 µM
  viability, T/C: 104%
[5]
  viability, T/C: 97.2%
[6]
  viability, T/C: 81.2%
[7]
  viability, T/C: 73.5%
[8]
  viability, T/C: 38.2%
Second compound 1 µM, first compound 0.00316 µM
  viability, T/C: 67.3%
Second compound 1 µM, first compound 0.01 µM
  viability, T/C: 78.9%
[9]
  viability, T/C: 90.9%
[10]
  viability, T/C: 101%
[11]
  viability, T/C: 67.3%
[12]
  viability, T/C: 46%
Second compound 3.16 µM, first compound 0.00316 µM
  viability, T/C: 84.1%
Second compound 3.16 µM, first compound 0.01 µM
  viability, T/C: 102%
[13]
  viability, T/C: 83.5%
[14]
  viability, T/C: 94.3%
[15]
  viability, T/C: 72.5%
[16]
  viability, T/C: 48.2%
Second compound 10 µM, first compound 0.00316 µM
  viability, T/C: 73.5%
Second compound 10 µM, first compound 0.01 µM
  viability, T/C: 83.1%
[17]
  viability, T/C: 78.2%
[18]
  viability, T/C: 81.9%
[19]
  viability, T/C: 61.7%
[20]
  viability, T/C: 38%
